Laboratory results from patent publication US20100286082A1, “RIBOSWITCHES AND METHODS AND COMPOSITIONS FOR USE OF AND WITH RIBOSWITCHES” (Yale University, priority 2007, published 2010).

Assays:
17-90 RNA [1] = assay: Equilibrium dialysis of 3H-preQ1 with 17-90 RNA; type: binding, Streptococcus pneumoniae R6; settings: excess unlabeled compound added to chamber a after equilibration
Method: Equilibrium dialysis experiments were preformed with ^3H-preQ1 and the 17-90 RNA construct to confirm ligand binding and the specificity of molecular recognition using a different methodology. For equilibrium dialysis, ^3H-preQ1 was added to chamber a of an equilibrium dialysis apparatus, and excess RNA is added to chamber b. The two chambers are separated by a 5,000 Dalton molecular weight cut off dialysis membrane (FIG. 18A). The solutions were allowed to equilibrate and the fraction of tritium in each chamber was subsequently measured by liquid scintillation counting. […] When ^3H-preQ1 ([…]) is equilibrated without RNA, or with an RNA that lacks the ability to form the P3 stem (1-81 RNA), the ^3H label distributes evenly (b/a ˜1). […]
A 30 μl mixture containing 50 mM Tris-HCl (pH 8.3 at 23° C.), 20 mM MgCl2, 100 mM KCl, and 1 μM of ^3H-labeled preQ1 was placed in one chamber of a DispoEquilibrium Dialyzer (ED-1, Harvard Bioscience) and the same volume containing the same constituents minus the ^3H-labeled preQ1 was added to the opposing side. When noted, the latter solution also contained either 5 μM 17-90 RNA or 5 μM 1-81 RNA. After equilibrating for 14 hours, a 5 μl aliquot was removed from each side of the apparatus to determine the distribution of ^3H-label in the two chambers by liquid scintillation counting. […]

17-90 RNA mutant U41 = assay: In-line probing of mutant (U41) 17-90 RNA; type: binding, Streptococcus pneumoniae R6; settings: compared with wild type
17-90 RNA [2] = assay: In-line probing of 17-90 RNA (preQ1-II aptamer); type: binding, Streptococcus pneumoniae R6; settings: compound concentrations up to 1 mM
SAM-II aptamer 156 metA = settings: representative of SAM-II aptamers, Lim et al., 2006b; cited from earlier work
[3] = molecular target: 132 Sc RNA (SAM-IV riboswitch); assay: In-line probing of 132 Sc RNA (SAM-IV); type: binding, Streptomyces coelicolor
Description: DNA corresponding to the aptamer in the pEZ35 plasmid (above) was amplified by PCR with primers 5′-[…]

[4] = test system: SAH riboswitch of the ahcY 5′-UTR fused to lacZ (WT reporter strain); assay: In vivo reporter gene expression, ahcY 5′ UTR-lacZ translational fusion; type: cell-based, Pseudomonas syringae; settings: Vogel-Bonner minimal medium supplemented with 250 μM compound
Method: An in vivo gene control assay was conducted wherein the IGR encompassing the 5′ UTR of the ahcY gene in P. syringae was fused immediately upstream of a lacZ coding sequence. This construct retained the start codon of the ahcY gene, which was fused in frame with the reporter gene ORF. The resulting translational fusion vector was transformed into P. syringae to produce the wild-type (WT) reporter strain. Similarly, a series of mutant reporter strains were constructed that are expected to disrupt or restore aptamer function (FIG. 13A). Transformed P. syringae strains subsequently were grown in either King's medium B (rich) or Vogel-Bonner medium (minimal), and the reporter expression levels of the mutant constructs were compared to the results from the WT reporter construct (FIG. 13B).
Nucleotides ˜367 to +6 relative to the predicted ahcY translation start site (GenBank accession: NC—004578.1; nucleotides 5,771,072 to 5,771,444) were amplified as a BamHI-HindIII fragment by whole-cell PCR of Pseudomonas syringae pv. tomato str. DC3000. The PCR product was cloned into the translational fusion vector pRA301 (Akakura and Winans, 2002) immediately upstream of the lacZ reporter gene. This reporter vector is stably maintained in pseudomonas since it harbors the origin of replication rep and stability region sta derived from the pseudomonas aeruginosa vector pVS1 (Itoh et al., 1984). […]

[5] = molecular target: SAM-I riboswitch 124 yitJ; assay: SAM-I riboswitch binding (literature); settings: ratio of the KD for the compound to that for SAM
68 metH RNA = assay: In-line probing of 68 metH RNA (SAH aptamer); type: binding, Dechloromonas aromatica; settings: in-line probing; read-out: apparent dissociation constant KD
Method: iii. In-Line Probing Analysis In-line probing assays were carried out essentially as previously described (Soukup and Breaker, 1999). 5′^32P-labeled RNAs were incubated at room temperature for approximately 40 h in 10 μl volumes containing 50 mM Tris-HCl (pH 8.3 at 25° C.), 20 mM MgCl2, 100 mM KCl, and included test compounds at the concentrations indicated. Spontaneous cleavage products were separated by denaturing 10% PAGE, visualized using a Phosphorlmager (Molecular Dynamics), and quantified using SAFA v1.1 software (Das et al., 2005). The amount of RNA cleaved at each nucleotide position was obtained from SAFA analysis, which automatically determines reference nucleotide positions with invariant levels of spontaneous cleavage to correct for different amounts loaded in each lane. Individual band intensities at each modulated site were summed and normalized to obtain values for the fraction of RNA that was structurally modulated, assuming that there was no modulation in the absence of ligand and maximal modulation in the presence of the highest concentration of ligand. Values for the apparent dissociation constant (KD) were determined by fitting the plot of the fraction modulated (F), versus the ligand concentration, [L], at all three indicated modulation sites to the equation F [L]/([L]+KD) using SigmaPlot 9 software (Systat Software, Inc.).

[6] = molecular target: SAM-I riboswitch 124 yitJ; settings: cited from earlier work

## Nc1nc2nc[nH]c2c(=O)[nH]1 [guanine]
17-90 RNA [1]
  competition with 3H-preQ1 (distribution of 3H label): has no effect on the distribution of ^3H

## Nc1nc(N)c2[nH]cnc2n1 [DAP, 2,6-diaminopurine]
17-90 RNA mutant U41
  binding by the U41 mutant: essentially the same affinity as wild type
17-90 RNA [2]
  binding by 17-90 RNA: near identical KD values

## Nc1ncnc2c1ncn2[C@@H]1O[C@H](CSCC[C@H](N)C(=O)O)[C@@H](O)[C@H]1O [SAH, S-adenosylhomocysteine]
SAM-II aptamer 156 metA
  discrimination against SAH: more than 1000 fold
[3]; in-line probing, 132 Sc RNA, read-out: apparent dissociation constant (KD)
  Kd: 20 µM
[3]; ratio of the KD for the compound to that for SAM
  KD [compound]/ KD [SAM] SAM-IV: 133
[4]
  riboswitch-mediated reporter expression: only slightly increases reporter expression
[5]
  KD [compound]/ KD [SAM] SAM-I: 80
68 metH RNA
  Kd: ~0.02 µM
[6]; calculated previously (Lim et al. 2006), read-out: KD [compound] (nM) SAM-I
  Kd: 400 nM
[6]; representative of SAM-I aptamers, Lim et al., 2006b
  discrimination against SAH: ~80 fold
